In PMC11725774 (Cancer Research Communications, 2025):

Key:
Assay type in all cases: cell-based, human
MOLM-14 cells (parental) = assay: Growth inhibition of AML cell line; details: Homo sapiens, MOLM-14; mean ± SEM (Supplementary Table 6); read-out: GI50 (nM) Parental MOLM-14 (converted)
Procedure: (§1) MV-4-11 cells expressing NRAS^G12D were prepared by transduction with a lentiviral vector encoding the NRAS^G12D mutation. Assays using a panel of parental Ba/F3 into which an additional copy of either WT or a mutant form of FLT3 was introduced were performed at Kyinno Biotechnology Co., Ltd. All cell lines were short tandem repeat authenticated at ATCC or at DSMZ when originally obtained, and no further authentication was done after receipt of the cells in the laboratory.
(§2) Assays using Ba/F3 cells expressing WT and mutant forms of FLT3 were performed by Kyinno Biotechnology. The cells were cultured in the medium recommended by the source for each cell line. Growth inhibition assays were performed using either Cell Titer 96 Aqueous One Solution Cell Proliferation assay (Promega, # G3581) or CCK8 (Dojindo, # CK-04). […] IC50 values were determined from growth inhibition curves fitted using GraphPad Prism and a nonlinear regression model with sigmoidal dose response. Unless otherwise indicated, data are presented as mean ± SEM.

TUS/R line 3 (MOLM-14) = assay: Growth inhibition of TUS-resistant subline; details: Homo sapiens, MOLM-14, read-out: GI50 (nM) TUS/R line 3; mean ± SEM (Supplementary Table 6)
TUS/R line 4 (MOLM-14) = assay: Growth inhibition of TUS-resistant subline; details: Homo sapiens, MOLM-14, read-out: GI50 (nM) TUS/R line 4; mean ± SEM (Supplementary Table 6)
TUS/R MOLM-14 cells = assay: Growth inhibition of TUS-resistant sublines versus parental
MV-4-11 cells = assay: Growth inhibition of AML cell line; details: Homo sapiens, MV4-11; mean ± SEM (Supplementary Table 7); read-out: GI50 (nM) Parental (MV-4-11)
Procedure: as §1, §2

[1] = test system: MV-4-11 NRAS G12D Clone 15; assay: Growth inhibition of NRAS G12D clone; details: Homo sapiens, MV4-11; MV-4-11 NRAS G12D; mean ± SEM
Procedure: as §1, §2

[2] = test system: MV-4-11 NRAS G12D Clone 1; assay: Growth inhibition of NRAS G12D clone; details: Homo sapiens, MV4-11; MV-4-11 NRAS G12D; mean ± SEM
Procedure: as §1, §2

[3] = test system: MV-4-11 NRAS G12D Clone 4; assay: Growth inhibition of NRAS G12D clone; details: Homo sapiens, MV4-11; MV-4-11 NRAS G12D, high expression; mean ± SEM; read-out: GI50 (nM) Clone 4
Procedure: as §1, §2

| Structure (SMILES) | GI50 (TUS/R line 3 (MOLM-14)) [nM] | GI50 (TUS/R line 4 (MOLM-14)) [nM] | GI50 [1] [nM] | GI50 [2] [nM] | GI50 [3] [nM] | GI50 (MOLM-14 cells (parental)) [nM] | fold hypersensitive, TUS/R versus parental MOLM-14 (TUS/R MOLM-14 cells) | GI50 (MV-4-11 cells) [nM] |
| --- | --- | --- | --- | --- | --- | --- | --- | --- |
| CC1(C)CCC(c2ccc(Cl)cc2)=C(CN2CCN(c3ccc(C(=O)NS(=O)(=O)c4ccc(N[C@H](CCN5CCOCC5)CSc5ccccc5)c(S(=O)(=O)C(F)(F)F)c4)cc3)CC2)C1 [Navitoclax, navitoclax] | 15.3 ± 2.4 | 15 ± 2.1 | – | – | – | 410 ± 50.2 | ~27 fold | – |
| N#CC[C@H](C1CCCC1)n1cc(-c2ncnc3[nH]ccc23)cn1 [Ruxolitinib, ruxolitinib] | ~1100 | ~1130 | – | – | – | – | – | – |
| Nc1ncn([C@@H]2O[C@H](CO)[C@@H](O)[C@H]2O)c(=O)n1 [5-Azacytidine, 5-azacytidine] | 1620 ± 294 | 1580 ± 145 | – | – | – | 2140 ± 231 | – | – |

The next lines start with results.

| GI50 (TUS/R line 3 (MOLM-14)) [nM] | GI50 (TUS/R line 4 (MOLM-14)) [nM] | GI50 [1] [nM] | GI50 [2] [nM] | GI50 [3] [nM] | Structure (SMILES) | GI50 (MOLM-14 cells (parental)) [nM] | fold hypersensitive, TUS/R versus parental MOLM-14 (TUS/R MOLM-14 cells) | GI50 (MV-4-11 cells) [nM] |
| --- | --- | --- | --- | --- | --- | --- | --- | --- |
| – | – | 104 ± 11.1 | 187 ± 38.6 | 209 ± 33.9 | Cc1ccc2c(Nc3cccc(Cl)c3F)nccc2c1NC(=O)c1csc2c(N)ncnc12 [Belvarafenib, belvarafenib] | – | – | 750 ± 92.8 |
| 164 ± 14.7 | 142 ± 9.1 | – | – | – | COC1=CC(c2cc3ccccc3[nH]2)=N/C1=C\c1[nH]c(C)cc1C [Obatoclax, obatoclax] | 98.2 ± 7.7 | no increase in sensitivity | – |
| 28.9 ± 2.7 | 26.8 ± 1.8 | – | – | – | Cn1c(=O)n(-c2ccc(C(C)(C)C#N)cc2)c2c3cc(-c4cnc5ccccc5c4)ccc3ncc21 [Dactolisib, dactolisib] | 21.3 ± 1.4 | not more sensitive | – |
| 176 ± 32.9 | 459 ± 86.2 | – | – | – | COc1cc(Nc2ncc(F)c(Nc3ccc4c(n3)N(COP(=O)(O)O)C(=O)C(C)(C)O4)n2)cc(OC)c1OC [Fostamatinib, fostamatinib] | – | not more sensitive | – |
